Each structure is given as a SMILES string.

This assay has as its target T1, full-length human PKCι (Homo sapiens, UniProt P41743).
T1 construct: Recombinant, full-length human PKCι expressed in Sf21 insect cells is also commercially available; purchased; host or cells: Sf21 insect cells
T1 sequence (P41743 1-596): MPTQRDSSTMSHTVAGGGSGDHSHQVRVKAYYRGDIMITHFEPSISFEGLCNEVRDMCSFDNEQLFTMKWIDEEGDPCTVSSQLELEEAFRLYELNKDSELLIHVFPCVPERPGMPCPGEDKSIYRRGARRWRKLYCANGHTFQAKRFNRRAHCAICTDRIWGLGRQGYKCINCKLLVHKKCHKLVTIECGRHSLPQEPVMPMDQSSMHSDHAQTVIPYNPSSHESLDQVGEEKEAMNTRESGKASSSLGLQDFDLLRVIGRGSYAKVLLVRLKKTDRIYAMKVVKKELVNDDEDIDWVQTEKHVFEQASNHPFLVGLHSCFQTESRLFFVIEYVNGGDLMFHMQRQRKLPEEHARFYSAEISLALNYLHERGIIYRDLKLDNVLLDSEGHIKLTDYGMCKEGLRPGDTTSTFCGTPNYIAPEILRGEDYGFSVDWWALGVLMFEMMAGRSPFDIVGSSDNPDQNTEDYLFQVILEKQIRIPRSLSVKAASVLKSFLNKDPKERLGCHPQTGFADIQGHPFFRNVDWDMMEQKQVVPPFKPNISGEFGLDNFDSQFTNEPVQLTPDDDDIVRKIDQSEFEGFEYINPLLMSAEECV
The assay is described as follows: PKCι IC50 IMAP fluorescence polarisation assay, full-length enzyme. The assay is classed as biochemical. Particulars: full length PKCi at 15 μM ATP; read-out: IC50 in IMAP assay against full length PKCi. Background: Polarisation of emitted light reports the rotation of a fluorescent probe.

Usually IC50 stands for the concentration at which inhibition is half-maximal. As for `COC(C)(C)C#Cc1csc2c(NC[C@@H](N)Cc3ccccc3)nc(-c3ccncc3)nc12` [compound 520, (S)-N*1*-[7-(3-Methoxy-3-methyl-but-1-ynyl)-2-pyridin-4-yl-thieno[3,2-d]pyrimidin-4-yl]-3-phenyl-propane-1,2-diamine], the IC50 lay within 100 to 1000 nM. With `CC[C@H](O)C#Cc1csc2c(NC[C@@H](N)Cc3ccccc3)nc(-c3ccncc3)nc12` [compound 521], the IC50 is < 100 nM. With `CCC[C@@H](C)[C@H](O)C#Cc1csc2c(NC[C@@H](N)Cc3ccccc3)nc(-c3ccncc3)nc12` [compound 522, (S)-1-[4-((S)-2-Amino-3-phenyl-propylamino)-2-pyridin-4-yl-thieno[3,2-d]pyrimidin-7-yl]-4-methyl-hept-1-yn-3-ol] the figure was 1000 to 10000 nM; with `CC[C@](C)(O)C#Cc1csc2c(NC[C@@H](N)Cc3ccccc3)nc(-c3ccncc3)nc12` [compound 523, (S)-1-[4-((S)-2-Amino-3-phenyl-propylamino)-2-pyridin-4-yl-thieno[3,2-d]pyrimidin-7-yl]-3-methyl-pent-1-yn-3-ol], 100 to 1000 nM; with `CC(C)[C@](C)(O)C#Cc1csc2c(NC[C@@H](N)Cc3ccccc3)nc(-c3ccncc3)nc12` [compound 524, (S)-1-[4-((S)-2-Amino-3-phenyl-propylamino)-2-pyridin-4-yl-thieno[3,2-d]pyrimidin-7-yl]-3,4-dimethyl-pent-1-yn-3-ol], 1000 to 10000 nM. With `CCC(O)(C#Cc1csc2c(NC[C@@H](N)Cc3ccccc3)nc(-c3ccncc3)nc12)CC` [compound 525, 1-[4-(2-Amino-3-phenyl-propylamino)-2-pyridin-4-yl-thieno[3,2-d]pyrimidin-7-yl]-3-ethyl-pent-1-yn-3-ol] the figure was 1000 to 10000 nM. With `CCC[C@H](O)C#Cc1csc2c(NC[C@@H](N)Cc3ccccc3)nc(-c3ccncc3)nc12` [compound 526, (S)-1-[4-((S)-2-Amino-3-phenyl-propylamino)-2-pyridin-4-yl-thieno[3,2-d]pyrimidin-7-yl]-hex-1-yn-3-ol] the figure was 100 to 1000 nM; with `C[C@H](O)C#Cc1csc2c(N[C@@H]3CCNC3)nc(-c3ccncc3F)nc12` [compound 527, (S)-4-[2-(3-Fluoro-pyridin-4-yl)-4-((R)-pyrrolidin-3-ylamino)-thieno[3,2-d]pyrimidin-7-yl]-but-3-yn-2-ol], 10000 to 40000 nM; with `N[C@H](CNc1nc(-c2ccncc2)nc2c(C#CC3(O)CCCC3)csc12)Cc1ccccc1` [compound 528], < 100 nM. Regarding `N[C@H](CNc1nc(-c2ccncc2)nc2c(C#Cc3ccccn3)csc12)Cc1ccccc1` [compound 529, (S)-3-Phenyl-N*1*-(2-pyridin-4-yl-7-pyridin-2-ylethynyl-thieno[3,2-d]pyrimidin-4-yl)-propane-1,2-diamine], the IC50 was 100 to 1000 nM. With `N[C@H](CNc1nc(-c2ccncc2)nc2c(C#Cc3ccccc3F)csc12)Cc1ccccc1` [compound 530, (S)-N*1*-[7-(2-Fluoro-phenylethynyl)-2-pyridin-4-yl-thieno[3,2-d]pyrimidin-4-yl]-3-phenyl-propane-1,2-diamine] the figure was 100 to 1000 nM. Next, `N[C@H](CNc1nc(-c2ccncc2)nc2c(C#CCCO)csc12)Cc1ccccc1` [compound 531, 4-[4-((S)-2-Amino-3-phenyl-propylamino)-2-pyridin-4-yl-thieno[3,2-d]pyrimidin-7-yl]-but-3-yn-1-ol]: < 100 nM. Next, `N[C@H](CNc1nc(-c2ccncc2)nc2c(C#CC3(O)CC3)csc12)Cc1ccccc1` [compound 532, 1-[4-((S)-2-Amino-3-phenyl-propylamino)-2-pyridin-4-yl-thieno[3,2-d]pyrimidin-7-ylethynyl]-cyclopropanol]: < 100 nM; `C[C@H](O)C#Cc1csc2c(NC[C@@H](N)Cc3ccccc3)nc(-c3ccncc3)nc12` [compound 533, (S)-4-[4-((S)-2-Amino-3-phenyl-propylamino)-2-pyridin-4-yl-thieno[3,2-d]pyrimidin-7-yl]-but-3-yn-2-ol]: < 100 nM; `C[C@@H](O)C#Cc1csc2c(NC[C@@H](N)Cc3ccccc3)nc(-c3ccncc3)nc12` [compound 534, (R)-4-[4-((S)-2-Amino-3-phenyl-propylamino)-2-pyridin-4-yl-thieno[3,2-d]pyrimidin-7-yl]-but-3-yn-2-ol]: < 100 nM.

Turning to `N[C@H](CNc1nc(-c2ccncc2)nc2c(C#CCCCO)csc12)Cc1ccccc1` [compound 535, 5-[4-((S)-2-Amino-3-phenyl-propylamino)-2-pyridin-4-yl-thieno[3,2-d]pyrimidin-7-yl]-pent-4-yn-1-ol], the IC50 fell in the range of 1000 to 10000 nM. Next, `CC(O)CC#Cc1csc2c(NC[C@@H](N)Cc3ccccc3)nc(-c3ccncc3)nc12` (stereo partly drawn) [compound 536, 5-[4-((S)-2-Amino-3-phenyl-propylamino)-2-pyridin-4-yl-thieno[3,2-d]pyrimidin-7-yl]-pent-4-yn-2-ol]: < 100 nM.

Consider `CC(C)(O)CC#Cc1csc2c(NC[C@@H](N)Cc3ccccc3)nc(-c3ccncc3)nc12` [compound 537, 5-[4-((S)-2-Amino-3-phenyl-propylamino)-2-pyridin-4-yl-thieno[3,2-d]pyrimidin-7-yl]-2-methyl-pent-4-yn-2-ol], for which the IC50 was in the range of 100 to 1000 nM. With `CNCC#Cc1csc2c(NC[C@@H](N)Cc3ccccc3)nc(-c3ccncc3)nc12` [compound 538, (S)-N*1*-[7-(3-Methylamino-prop-1-ynyl)-2-pyridin-4-yl-thieno[3,2-d]pyrimidin-4-yl]-3-phenyl-propane-1,2-diamine] the figure was 100 to 1000 nM. Next, `N[C@H](CNc1nc(-c2ccncc2)nc2c(C#CC3(O)CCC3)csc12)Cc1ccccc1` [compound 539, 1-[4-((S)-2-Amino-3-phenyl-propylamino)-2-pyridin-4-yl-thieno[3,2-d]pyrimidin-7-ylethynyl]-cyclobutanol]: < 100 nM. For the molecule `C[C@H](O)CC#Cc1csc2c(NC[C@@H](N)Cc3ccccc3)nc(-c3ccncc3)nc12` [compound 540, (S)-5-[4-((S)-2-Amino-3-phenyl-propylamino)-2-pyridin-4-yl-thieno[3,2-d]pyrimidin-7-yl]-pent-4-yn-2-ol], the IC50 fell in the range of 100 to 1000 nM. With `C#Cc1csc2c(NC[C@@H](N)Cc3ccccc3)nc(-c3ccncc3)nc12` [compound 541, (S)-N*1*-(7-Ethynyl-2-pyridin-4-yl-thieno[3,2-d]pyrimidin-4-yl)-3-phenyl-propane-1,2-diamine] the figure was < 100 nM.

For `CC#Cc1csc2c(NC[C@@H](N)Cc3ccccc3)nc(-c3ccncc3)nc12` [compound 542, (S)-3-Phenyl-N*1*-(7-prop-1-ynyl-2-pyridin-4-yl-thieno[3,2-d]pyrimidin-4-yl)-propane-1,2-diamine], the IC50 is < 100 nM. Next, `C#Cc1sc2c(N[C@@H]3CCNC3)nc(-c3ccncc3)nc2c1C` [compound 543, (6-Ethynyl-7-methyl-2-pyridin-4-yl-thieno[3,2-d]pyrimidin-4-yl)-(R)-pyrrolidin-3-yl-amine]: 1000 to 10000 nM; `C[C@@H](F)C#Cc1csc2c(NC[C@@H](N)Cc3ccccc3)nc(-c3ccncc3)nc12` [compound 544, (S)—N*1*-[7-(3-Fluoro-but-1-ynyl)-2-pyridin-4-yl-thieno[3,2-d]pyrimidin-4-yl]-3-phenyl-propane-1,2-diamine]: < 100 nM; `N[C@H](CNc1nc(-c2ccncc2)nc2c(C#CCF)csc12)Cc1ccccc1` [compound 545, (S)-N*1*-[7-(3-Fluoro-prop-1-ynyl)-2-pyridin-4-yl-thieno[3,2-d]pyrimidin-4-yl]-3-phenyl-propane-1,2-diamine]: < 100 nM. Next, `N[C@H](CNc1nc(-c2ccncc2)nc2c(C#CCCF)csc12)Cc1ccccc1` [compound 546, (S)-N*1*-[7-(4-Fluoro-but-1-ynyl)-2-pyridin-4-yl-thieno[3,2-d]pyrimidine]: 100 to 1000 nM; `N[C@H](CNc1nc(-c2ccncc2)nc2c(-c3cn[nH]n3)csc12)Cc1ccccc1` [compound 547, (S)-3-Phenyl-N*1*-[2-pyridin-4-yl-7-(3H-[1,2,3]triazol-4-yl)-thieno[3,2-d]pyrimidin-4-yl]-propane-1,2-diamine]: < 100 nM; `N[C@H](CNc1nc(-c2ccncc2)nc2c(C#Cc3cscn3)csc12)Cc1ccccc1` [compound 548, (S)-3-Phenyl-N*1*-(2-pyridin-4-yl-7-thiazol-4-ylethynyl-thieno[3,2-d]pyrimidin-4-yl)-propane-1,2-diamine]: 100 to 1000 nM. As for `N[C@H](CNc1nc(-c2ccncc2)nc2c(C#Cc3cc[nH]n3)csc12)Cc1ccccc1` [compound 549, (S)-3-Phenyl-N*1*-[7-(1H-pyrazol-3-ylethynyl)-2-pyridin-4-yl-thieno[3,2-d]pyrimidin-4-yl]-propane-1,2-diamine], the IC50 was < 100 nM. With `CN(C)C(=O)c1csc2c(NC[C@@H](N)Cc3ccccc3)nc(-c3ccncc3)nc12` [compound 550, 4-((S)-2-Amino-3-phenyl-propylamino)-2-pyridin-4-yl-thieno[3,2-d]pyrimidine-7-carboxylic acid dimethylamide] the figure was 1000 to 10000 nM.

Source of the values: patent US10183950B2, “Thienopyrimidine inhibitors of atypical protein kinase C” (Cancer Research Technology Limited, priority 2011, dated 2019).
